# Results published in PubChem BioAssay (NCI).
#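 1) Cells in 96-well plates. 2) Compound, 48 h, 5 concentrations. 3) Linear interpolation between surrounding doses. 4) Unreached endpoint = highest concentration. The concentration for full growth arrest is given as TGI.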
# Tests used:
# Test in all cases: growth of human tumour cells (NCI), 48 h
# A498 renal = tested on: A498 renal
# SNB-19 CNS = tested on: SNB-19 CNS
# SW-620 colon = tested on: SW-620 colon
# UACC-257 melanoma = tested on: UACC-257 melanoma
# OVCAR-3 ovarian = tested on: OVCAR-3 ovarian
# EKVX NSCLC = tested on: EKVX NSCLC
# SF-539 CNS = tested on: SF-539 CNS
# HL-60(TB) leukemia = tested on: HL-60(TB) leukemia
# DU-145 prostate = tested on: DU-145 prostate
# HS 578T breast = tested on: HS 578T breast
SMILES,TGI (A498 renal) [µM],TGI (SNB-19 CNS) [µM],TGI (SW-620 colon) [µM],TGI (UACC-257 melanoma) [µM],TGI (OVCAR-3 ovarian) [µM],TGI (EKVX NSCLC) [µM],TGI (SF-539 CNS) [µM],TGI (HL-60(TB) leukemia) [µM],TGI (DU-145 prostate) [µM],TGI (HS 578T breast) [µM]
CN1N=C2c3ccccc3CC[C@H]2C1c1ccccc1 (stereo partly drawn),> 100,> 100,> 100,70.3,> 100,> 100,> 100,> 100,–,–
N#CC1C(=O)Nc2sc(C(=O)c3ccc(Br)cc3)c(N)c2C12CCCCC2 (stereo not drawn),63.6,> 100,69.4,> 100,52.7,> 100,42.6,–,> 100,–
CC1=C(C(=O)OCCO[N+](=O)[O-])C(c2ccccc2C(F)(F)F)C(C(=O)OC(C)C)=C(C)N1 (stereo not drawn),60.6,78.3,> 100,25.4,29.2,97.9,31.6,> 100,> 100,–
CCc1cccc(C(C)C)c1NC(=O)C(=O)C(C(=O)C(=O)OC)c1nc2ccccc2[nH]c1=O (stereo not drawn),> 100,> 100,> 100,> 100,–,> 100,–,> 100,–,–
Oc1[nH]c2ccccc2c1N=NC1=NCCCCN1,> 100,> 100,> 100,> 100,> 100,> 100,> 100,–,> 100,> 100
CC1(C)OCC2OC3([C@H](O)CCO)OC(C)(C)OC3C2O1 (stereo partly drawn),> 100,> 100,> 100,> 100,> 100,> 100,> 100,–,> 100,–
NC(=O)c1n[nH]n(-c2ccccc2)c1=O,> 100,> 100,> 100,> 100,> 100,> 100,> 100,–,> 100,> 100
CCN1/C(=C/c2ccc3ccccc3[n+]2CC)C=Cc2ccccc21,15,27.8,14.5,7.22,13.1,16.7,13.7,–,15.7,12.5
O=C(CCCCCCCCC(=O)NN1C(=O)/C(=C\c2ccc(O)c(O)c2)SC1c1c(O)ccc2ccccc12)NN1C(=O)C(=Cc2ccc(O)c(O)c2)SC1c1c(O)ccc2ccccc12 (stereo not drawn),75.9,> 70.3,> 100,> 92.7,> 32.9,> 100,97.2,–,> 59.8,–
CCC(=O)OCc1ccc2oc(=O)c(C(=O)Oc3cncc(Cl)c3)cc2c1,–,> 100,> 100,> 100,> 100,> 100,> 100,–,> 100,> 100
COC1(OC)N=C(N)C2(C#N)C(C)CC(=O)N(N(C)C)C12C#N (stereo not drawn),> 100,> 100,> 100,> 100,–,> 100,> 100,> 100,> 100,> 100
Cc1cc(Cc2cc(C)c(NC(=O)C(=O)C3C(=O)NC(=S)NC3=O)c(C(C)C)c2)cc(C(C)C)c1NC(=O)C(=O)C1C(=O)NC(=S)NC1=O,> 100,> 100,> 100,> 100,> 100,> 100,–,> 100,–,–
